In ChEMBL document CHEMBL1143372, “Synthesis of Pro-Xylane: a new biologically active C-glycoside in aqueous media” (2009) one finds Activity data, which are given here for six compounds.

Holding throughout (type): functional, Homo sapiens
For assay [1], the system named is NHDF. Kind of assay: Antiaging activity in NHDF assessed as D-[6-H3]-glucosamine incorporation into glycosaminoglycan fraction at 0.4 mM after 72 hrs relative to control.
Assay [2] concerns NHDF. Kind of assay: Antiaging activity in NHDF assessed as D-[6-H3]-glucosamine incorporation into glycosaminoglycan fraction at 10 mM after 72 hrs relative to control.
The subject of assay [3] is NHDF. Description: Antiaging activity in NHDF assessed as D-[6-H3]-glucosamine incorporation into glycosaminoglycan fraction at 2 mM after 72 hrs relative to control.
Assay [4] deals with NHDF. Description: Antiaging activity in NHDF assessed as D-[6-H3]-glucosamine incorporation into glycosaminoglycan fraction at 1 mM after 72 hrs relative to control.
The subject of assay [5] is NHDF. Description: Antiaging activity in NHDF assessed as D-[6-H3]-glucosamine incorporation into glycosaminoglycan fraction at 3 mM after 72 hrs relative to control.
The subject of assay [6] is NHDF. Description: Antiaging activity in NHDF assessed as D-[6-H3]-glucosamine incorporation into glycosaminoglycan fraction at 0.3 mM after 72 hrs relative to control.
The test system of assay [7] is NHDF. Kind of assay: Antiaging activity in NHDF assessed as D-[6-H3]-glucosamine incorporation into glycosaminoglycan fraction at 0.1 mM after 72 hrs relative to control.
Assay [8] deals with NHDF. Description: Antiaging activity in NHDF assessed as D-[6-H3]-glucosamine incorporation into glycosaminoglycan fraction at 0.08 mM after 72 hrs relative to control.
Assay [9] concerns NHDF. Kind of assay: Antiaging activity in NHDF assessed as D-[6-H3]-glucosamine incorporation into glycosaminoglycan fraction at 0.02 mM after 72 hrs relative to control.
In assay [10] the test system is NHDF. Description: Antiaging activity in NHDF assessed as D-[6-H3]-glucosamine incorporation into glycosaminoglycan fraction at 0.5 mM after 72 hrs relative to control.

For `CC(=O)C[C@@H]1OC[C@@H](O)[C@H](O)[C@H]1O`, the Activity is 110% in the assay on NHDF [1], 161% in the assay on NHDF [2] and 141% in the assay on NHDF [3].
For `CC(=O)C[C@@H]1O[C@H](CO)[C@H](O)[C@H](O)[C@H]1O`, the Activity with NHDF [4] was 136%; in the assay with NHDF [5] it was 119%; in the assay on NHDF [2], 99%.
For `CC(O)C[C@@H]1OC[C@@H](O)[C@H](O)[C@H]1O` (stereo partly drawn), the Activity was found to be 169% with NHDF [4], 218% in the assay with NHDF [5] and 139% in the assay with NHDF [6].
Regarding `O=C(C[C@@H]1OC[C@@H](O)[C@H](O)[C@H]1O)c1ccccc1`, the Activity in the assay with NHDF [4] is given as 95%; in the assay on NHDF [7], 120%; with NHDF [6], 102%.
Consider `O[C@@H]1[C@H](O)[C@@H](O)OC[C@H]1O` [LYXOSE], for which the results for the Activity with NHDF [1], with NHDF [3] and in the assay on NHDF [8] were 102%, 86% and 90%, respectively.
Consider `O=C[C@H](O)[C@@H](O)[C@H](O)CO` [XYLOSE], for which the Activity in the assay with NHDF [9] turned out to be 106%; in the assay with NHDF [7], 85%; in the assay on NHDF [10] it was 52%.
